From patent US8337891B2, “Enteric coated composition comprising prostaglandin analogs as chloride channel opener” (Sucampo AG, priority 2003, dated 2012)

Assays:
[1] = ratio of monocyclic/bicyclic tautomer in pH2 solvent by 1H-NMR; assay type: physicochemical
Experimental: The compound 1 (bicyclic structure, solid) was dissolved in D2O—CD3OD(1:1), which was adjusted to pH 2 with DCl. The ratio of monocyclic tautomer/bicyclic tautomer of compound 1 in the pH2 solvent was determined with ^1H-NMR.
According to the same manner described in the test example 2, the ratio of monocyclic tautomer/bicyclic tautomer of compound 2 in pH2 solvent was determined by ^1H-NMR.

[2] = tautomeric form of the solid compound; assay type: physicochemical; conditions: provided as a solid compound

For `CCCCC(F)(F)[C@@]1(O)CC[C@H]2[C@@H](CC(=O)[C@@H]2CCCCCCC(=O)O)O1` [Compound 1, 13,14-dihydro-15-keto-16,16-difluoro-PGE1], the “Ratio of monocyclic tautomer (%)” value ([1]; D2O-CD3OD (1:1) adjusted to pH 2 with DCl, 1H-NMR, starting from solid bicyclic tautomer) was 8.5%, the “compound converted into the monocyclic tautomer” value ([1]; pH2 solvent, bicyclic ring opened) was “more than 5%” and the “proportion of the compound existing as the bicyclic structure” value [2] was roughly 100%.
